Counter-ions that a name gives are not always drawn. Like-named read-outs stand apart in the source and are kept apart here.
Key:
HMC-1-8 cells = assay: Antiproliferation assay HMC-1-8 (Assay 7); assay type: cell-based
Experimental: (§1) Assessment of the Anti-Proliferative Effect of Compounds in Different Cell Lines
(§2) The impact of compounds on the proliferation of different cell lines was assessed using the CellTiter-Glo® Luminescent Cell Viability reagent from Promega (G7573).
(§3) In parallel, cells were plated in a reference (day 0) plate for time zero determination. Cells were incubated in a humidified incubator at 37° C. overnight.
(§4) Rim wells were excluded. The cells were incubated for 72 h hours in a humidified incubator at 37° C. The day 0 plate was measured by adding 30 μL/well of CTG solution (CellTiter-Glo® Luminescent Cell Viability reagent, Promega G7573) to time zero wells in the reference plate followed by a 10 minutes incubation and luminescence reading at 0.1 ms. using the PHERAstar FS microplate reader (BMG Labtech).
(§5) After 72 h incubation, the treated plates were measured in the same way as the day 0 plate mentioned above. The Bella DRC Master Sheet was used to calculate IC50s, with CI=day 0 values and C0=DMSO control values.

SUDHL10 cells [1] = assay: Induction of caspase-3/7 activity in SUDHL10 cells (Assay 4); assay type: cell-based
Experimental: (§6) Induction of Caspase-3/7 Activity Upon Treatment of Cells with Selected Compounds
(§7) The BH3-domain of MCL-1 sequesters pro-apoptotic proteins, thereby inhibiting apoptosis. In contrast, MCL-1 inhibitors are expected to antagonize this effect leading to an increase in apoptosis, which can be determined by measuring the activity of caspase-3/7.
(§8) The activity of caspase-3/7 was determined in DLBCL (Diffuse large B-cell lymphoma) cell lines (SUDHL5 and SUDHL10) upon treatment with different compounds, using the Caspase-Glo® 3/7 reagent from Promega (G8092).
(§9) As a control, medium without cells was also added to the plate. Cells were incubated in a humidified incubator at 37° C. overnight.
(§10) Rim wells were excluded. The cells were incubated for 3 h hours in a humidified incubator at 37° C. After this incubation, 30 μL of Caspase-Glo® 3/7 reagent (Promega G8092) was added to each well using the Multidrop Combi Reagent Dispenser, followed by 1 h incubation at 37° C. Finally, luminescence was read at 0.1 ms, with a gain of 3000 using the PHERAstar FS microplate reader (BMG Labtech).
(§11) For the evaluation of the results, the background measured with “medium-only” was subtracted from all other values. Then, the values were normalized to DMSO-only treated cells (every value was divided by the mean of the DMSO control).

BCL-XL = BCL-XL (Homo sapiens (Human), UniProt Q07817); assay: Protein-protein interaction assay BCL-XL/Bad BH3 peptide (BCL-XL assay, TR-FRET); assay type: binding; conditions: read-out: BCL-XL Assay IC50 (median)
Sequence of BCL-XL (Q07817 1-212): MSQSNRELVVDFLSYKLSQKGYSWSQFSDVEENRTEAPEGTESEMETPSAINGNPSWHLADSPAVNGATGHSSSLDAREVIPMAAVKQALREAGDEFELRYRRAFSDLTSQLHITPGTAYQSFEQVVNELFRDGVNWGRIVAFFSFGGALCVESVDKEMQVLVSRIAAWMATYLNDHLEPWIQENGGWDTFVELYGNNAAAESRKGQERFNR
Experimental: Assay 2 Protein-Protein Interaction Assay: BCL-XL/Bad BH3 Peptide (BCL-XL Assay)
The dose-dependent inhibition by the compounds described in this invention of the interaction between BCL-XL and the BH3 domain of Bad (both human) was determined using a steady state binding competition assay with time-resolved fluorescence energy transfer (TR-FRET) readout. For that purpose BCL-XL (amino acids 1-212, C-terminal fused to a hexahistidine (6×His) tag (SEQ ID 3) and a synthetic Bad BH3-derived peptide of sequence Biotin-PEG2-PEG2-[…]-Nle-[…]-amide (SEQ ID 4) served as protein receptor and tracer ligand respectively. The recombinant BCL-XL protein (expressed in E. coli) was purchased from BPS Bioscience (San Diego, Calif., USA). The Bad BH3-derived peptide can be obtained from e.g. Biosyntan (Berlin, Germany).
In the assay 11 different concentrations of each compound (0.1 nM, 0.33 nM, 1.1 nM, 3.8 nM, 13 nM, 44 nM, 0.15 μM, 0.51 μM, 1.7 μM, 5.9 μM and 20 μM) were typically measured as duplicates in the same microtiter plate. For that, 100-fold concentrated DMSO solutions were prepared by serial dilutions (1:3.4) of a 2 mM stock solution in a clear, 384-well microtiter plate (Greiner Bio-One, Frickenhausen, Germany). From there, 50 nl were transferred in a dark test plate (Greiner Bio-One, Frickenhausen, Germany). The assay was initiated by addition of 2 μL of a 2,5-fold concentrated His-BCL-XL solution (usually for a 1 nM end concentration in 5 μL reaction volume) in aqueous assay buffer [50 mM Tris/HCl pH 7, 100 mM sodium chloride (NaCl), 50 mM potassium fluoride (KF), 0.005% Tween-20, 2 mM DTT, 0.1% bovine gamma globulin (BGG)] to the compounds in the assay plate. This was followed by a 10-minute incubation step at 22° C. for pre-equilibration of the putative complex between His-BCL-XL and the compounds. After that, 3 μL of a 1.67-fold concentrated solution (in assay buffer) consisting of Bad BH3-derived peptide (1 nM end concentration) and TR-FRET detection reagents [1.67 nM anti-His-Eu cryptate and 1.67 nM streptavidin-XL665 (both from Cisbio Bioassays, Codolet, France)], were added.
The mixture was incubated in the dark for one hour at 22° C. and then overnight at 4° C. The formation of BCL-XL/Bad complexes was determined by measuring the resonance energy transfer of the anti-His- Eu-cryptate antibody to the streptavidin-XL665 present in the reaction. For that purpose, the fluorescence emission at 620 nm and 665 nm after excitation at 330-350 nm was measured in a TR-FRET measuring instrument, for instance a Rubystar or a Pherastar (both from BMG Lab Technologies, Offenburg, Germany) or a Viewlux (Perkin-Elmer). The ratio of the emission at 665 nm and at 622 nm was used as indicator of the amount of BCL-XL/Bad complexes present.
The resulting data (ratio) were normalized, taking 0% inhibition as the mean value of control measurements (usually 32 data points) where all reagents were included. In this case 50 nl DMSO were used instead of compounds. […] IC50 values were determined by regression analysis based on a 4 parameter equation (minimum, maximum, IC50, Hill; Y=Max+(Min−Max)/(1+(X/IC50)^Hill) using the Screener Software (Genedata).

SUDHL10 cells [2] = assay: Induction of cytotoxicity in SUDHL10 cells (Assay 6); assay type: cell-based; conditions: 5 h, CellTiter-Glo, read-out: Cytotox SUDHL10 IC50 (median)
Experimental: Assay 6 Induction of Cytotoxicity Upon Treatment of Cells with Selected Compounds
In principle, compounds that induce apoptosis will concomitantly induce cell cytotoxicity. Therefore, cytotoxicity assays were run in parallel in SUDHL5 and SUDHL10 cells.
As a control, medium without cells was also added to the plate. Cells were incubated in a humidified incubator at 37° C. overnight. […] Rim wells were excluded. The cells were incubated for 5 h hours in a humidified incubator at 37° C. After this incubation, 30 μL of CellTiter-Glo® Luminescent Cell Viability reagent (Promega, G7573) was added to each well using the Multidrop Combi Reagent Dispenser, followed by 15 min incubation on a shaker at room temperature. Finally, luminescence was read at 0.1 ms, with a gain of 3000 using the PHERAstar FS microplate reader (BMG Labtech).

SUDHL5 cells [3] = assay: Induction of cytotoxicity in SUDHL5 cells (Assay 6); assay type: cell-based; conditions: 5 h, CellTiter-Glo, read-out: Cytotox SUDHL5 IC50 (median)
Procedure, shortened: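 Following overnight seeding at 37 °C, cells are treated with compound for 5 h, after which CellTiter-Glo reagent is added and luminescence measured following a 15 min room-temperature shake.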

SUDHL5 cells [4] = assay: Induction of caspase-3/7 activity in SUDHL5 cells (Assay 4); assay type: cell-based
Experimental: as §6, §7, §8, §9, §10, §11

SUDHL5 cells [5] = assay: Antiproliferation assay SUDHL5 (Assay 7); assay type: cell-based
Experimental: as §1, §2, §3, §4, §5

AMO-1 cells = assay: Antiproliferation assay AMO-1 (Assay 7); assay type: cell-based
Experimental: as §1, §2, §3, §4, §5

[6] = read-out: Antiproli HMC-1-8 IC50 median; 72 h, CellTiter-Glo
[7] = read-out: Caspase SUDHL10 EC50 (median); caspase-3/7 induction, 3 h
[8] = read-out: Caspase SUDHL5 EC50 (median); caspase-3/7 induction, 3 h
[9] = read-out: Antiproli AMO-1 IC50 median; 72 h, CellTiter-Glo

Row | EC50 (SUDHL10 cells [1]; [7]) [µM] | IC50 (BCL-XL) [µM] | EC50 (SUDHL5 cells [4]; [8]) [µM] | SMILES | IC50 (HMC-1-8 cells; [6]) [µM] | IC50 (SUDHL10 cells [2]) [µM] | IC50 (SUDHL5 cells [3]) [µM] | IC50 (AMO-1 cells; [9]) [µM] | also measured
1 | 25 | > 20 | > 33 | CCc1c2c(nn1C)C(C1CC1)OCCCCn1c(C(=O)O)c(CCCOc3cccc4cc(F)ccc34)c3ccc(Cl)c-2c31 (single isomer, unassigned; enantiomer 2) [Example 40, (−)-4-chloro-15-cyclopropyl-3-ethyl-7-{3-[(6-fluoronaphthalen-1-yl)oxy]propyl}-2-methyl-2,10,11,12,13,15-hexahydropyrazolo[4′,3′:9,10][1,6]oxazacycloundecino[8,7,6-hi]indole-8-carboxylic Acid—N-ethylethanamine Salt (Enantiomer 2)] | 23.2 | 29 | 20 | – | –
2 | – | – | – | CCc1c2c(nn1C)C(CCN(C)C)OCCCCn1c(C(=O)O)c(CCCOc3cccc4cc(F)ccc34)c3ccc(Cl)c-2c31 (single isomer, unassigned) [Example 84, 4-chloro-15-[2-(dimethylamino)ethyl]-3-ethyl-7-{3-[(6-fluoronaphthalen-1-yl)oxy]propyl}-2-methyl-2,10,11,12,13,15-hexahydropyrazolo[4′,3′:9,10][1,6]oxazacycloundecino[8,7,6-hi]indole-8-carboxylic Acid] | – | 4.4 | 1.7 | – | IC50 (HMC-1-8 cells; 72 h, CellTiter-Glo; read-out: Antiproli HMC-1-8 IC50 median): > 33 µM; EC50 (SUDHL10 cells [1]; caspase-3/7 induction, 3 h; read-out: Caspase SUDHL10 EC50 (median)): 5.4 µM; IC50 (SUDHL5 cells [5]; 72 h, CellTiter-Glo; read-out: Antiproli SUDHL5 IC50 (median)): 3.1 µM; IC50 (AMO-1 cells; 72 h, CellTiter-Glo; read-out: Antiproli AMO-1 IC50 median): 9.56 µM; EC50 (SUDHL5 cells [4]; caspase-3/7 induction, 3 h; read-out: Caspase SUDHL5 EC50 (median)): 1.8 µM
3 | > 33 | > 20 | > 33 | CCc1c2c(nn1C)C(C(F)(F)F)OCCCCn1c(C(=O)O)c(CCCOc3cccc4ccccc34)c3ccc(Cl)c-2c31 (single isomer, unassigned; enantiomer 2) [Example 34, (−)-4-chloro-3-ethyl-2-methyl-7-{3-[(naphthalen-1-yl)oxy]propyl}-15-(trifluoromethyl)-2,10,11,12,13,15-hexahydropyrazolo[4′,3′:9,10][1,6]oxazacycloundecino[8,7,6-hi]indole-8-carboxylic Acid—N-ethylethanamine Salt (Enantiomer 2)] | 20.7 | 26 | 7.1 | 30.9 | –
4 | – | – | – | CCc1c2c(nn1C)C1CCCCN1CCCCn1c(C(=O)O)c(CCCOc3cccc4ccccc34)c3ccc(Cl)c-2c31 (racemic) [Example 103, (rac)-18-chloro-1-ethyl-2-methyl-15-[3-(1-naphthyloxy)propyl]-2,3b,4,5,6,7,9,10,11,12-decahydropyrazolo[3′,4′:8,9]pyrido[1′,2′:6,7][1,6]diazacycloundecino[10,11,1-hi]indole-14-carboxylic Acid] | – | – | – | – | IC50 (HMC-1-8 cells; 72 h, CellTiter-Glo, read-out: Antiproli HMC-1-8 IC50 median): 19.8 µM; EC50 (SUDHL10 cells [1]; Homo sapiens, SU-DHL10, 3 h, caspase-3/7 induction, 3 h; read-out: Caspase SUDHL10 EC50 (median)): 2.2 µM; IC50 (SUDHL10 cells [2]; Homo sapiens, SU-DHL10, 5 h): 1.7 µM; IC50 (SUDHL5 cells [5]; Homo sapiens, SU-DHL-5, 72 h, 72 h, CellTiter-Glo; read-out: Antiproli SUDHL5 IC50 (median)): 2 µM; IC50 (SUDHL5 cells [3]; Homo sapiens, SU-DHL-5, 5 h): 1.1 µM; IC50 (AMO-1 cells; Homo sapiens, AMO1, 72 h, 72 h, CellTiter-Glo; read-out: Antiproli AMO-1 IC50 median): 1.95 µM; EC50 (SUDHL5 cells [4]; Homo sapiens, SU-DHL-5, 3 h, caspase-3/7 induction, 3 h; read-out: Caspase SUDHL5 EC50 (median)): 1.4 µM

Row | SMILES | EC50 (SUDHL10 cells [1]; [7]) [µM] | IC50 (BCL-XL) [µM] | EC50 (SUDHL5 cells [4]; [8]) [µM] | IC50 (HMC-1-8 cells; [6]) [µM] | IC50 (SUDHL10 cells [2]) [µM] | IC50 (SUDHL5 cells [3]) [µM] | IC50 (AMO-1 cells; [9]) [µM] | also measured
5 | CCc1c2c(nn1C)C(CCC1CCOCC1)OCCCCn1c(C(=O)O)c(CCCOc3cccc4cc(F)ccc34)c3ccc(Cl)c-2c31 (single isomer, unassigned; enantiomer 2) [Example 64, (−)-4-chloro-3-ethyl-7-{3-[(6-fluoronaphthalen-1-yl)oxy]propyl}-2-methyl-15-[2-(oxan-4-yl)ethyl]-2,10,11,12,13,15-hexahydropyrazolo[4′,3′:9,10][1,6]oxazacycloundecino[8,7,6-hi]indole-8-carboxylic Acid—N-ethylethanamine Salt (Enantiomer 2)] | 1.3 | – | 0.74 | 7.51 | 2.6 | 0.81 | 1.03 | IC50 (SUDHL5 cells [5]; read-out: Antiproli SUDHL5 IC50 (median); 72 h, CellTiter-Glo): 1.6 µM

From patent US11440923B2, “Substituted macrocyclic indole derivatives” (Bayer Aktiengesellschaft, priority 2017, dated 2022)
